Laboratory results from patent US9474814B2, “Differential evaporation potentiated disinfectant system” (XY, LLC, priority 2007, dated 2016).

Key:
[1] = tested on: Staphylococcus aureus (ATCC 6538); test: Potentiation Assay (non-evaporative vs evaporative procedure); format: cell-based; conditions: for Evaporated Log 10 Reduction: evaporated in centrifuge 60 minutes; for Non-evaporated Log 10 Reduction: set 60 minutes; for evaporative potentiation of antimicrobial efficacy: evaporative vs non-evaporative procedure, concentrations tested in water
Procedure: Now referring primarily to Table 5 and FIG. […] The non-evaporative and evaporative procedures included 50 μL of an overnight Staphylococcus aureus (ATCC 6538, ˜10^9 CFU/mL) culture added to each 2 mL sterile plastic vial with a conical bottom and dried without capping in a centrifuge for 30 minutes. One hundred microliters of the solution being tested was added to each vial (as triplicate vials) either let set for 60 minutes (non-evaporative) or evaporated in a centrifuge for 60 minutes (evaporative), with time to evaporate being determined by each DAA mixtures own evaporative characteristic. To the non-evaporated vials, 400 μL Mueller Hinton Broth (MHB) was added to the vial and 100 μL was plated onto Nutrient agar (NA). To the evaporated vials, 500 μL of MHB was added and 100 μL was plated onto NA. Plates were incubated overnight at ˜37° C. and counted (the “Potentiation Assay”).

[2] = neat substance; BuAc (reference) = 1.00; cited from earlier work
[3] = Relative evaporation rates; format: physicochemical; conditions: BuAc (reference) = 1.00
Description: Line C represents the change in fluid volume of a 20% (v/v) solution of diacetone alcohol in water caused by evaporation (a particular embodiment of the inventive differential evaporation antimicrobial composition), while line D represents the change in fluid phase concentration of the same 20% (v/v) diacetone alcohol in water occurring during the same fluid volume change. In this case, complete evaporation can occur in approximately 75 time units. Comparatively, the 20% (v/v) diacetone alcohol in water can be engaged with a population of microorganisms for a greater duration of time than the conventional antimicrobial composition without reapplication of an additional amount because evaporation occurs at a slower rate as shown by Table 3.

[4] = flash point; cited from earlier work
[5] = Table 1; cited from earlier work
[6] = 5% v/v active component, 95% water
[7] = 10% v/v active component, 90% water
[8] = 15% v/v active component, 85% water

SMILES: CN(C)CCO [DMEA, 2-dimethylaminoethanol]
- Evaporated Log 10 Reduction [1, 6]: XX (denotes a plate where the number of colonies represented less than 10% of the number of colonies counted in the corresponding positive control plate, representing a significant reduction of the number of microorganisms (>3 Log10 reduction).)
- Non-evaporated Log 10 Reduction [1, 6]: ---0--- (denotes a plate where the numbers of colonies represented more than 50% of the number of colonies counted in the corresponding positive control plate, representing no significant reduction in the population of viable microorganisms (0 to 1 Log10 reduction).)
- Evaporated Log 10 Reduction [1, 7]: XXx (denotes a plate where the number of colonies represented less than 1% of the number of colonies counted in the corresponding positive control plate, representing nearly complete reduction of the number of microorganisms (>4 Log10 reduction).)
- Non-evaporated Log 10 Reduction [1, 7]: ---0--- (denotes a plate where the numbers of colonies represented more than 50% of the number of colonies counted in the corresponding positive control plate, representing no significant reduction in the population of viable microorganisms (0 to 1 Log10 reduction).)
- Evaporated Log 10 Reduction [1, 8]: XXx (denotes a plate where the number of colonies represented less than 1% of the number of colonies counted in the corresponding positive control plate, representing nearly complete reduction of the number of microorganisms (>4 Log10 reduction).)
- Non-evaporated Log 10 Reduction [1, 8]: ---0--- (denotes a plate where the numbers of colonies represented more than 50% of the number of colonies counted in the corresponding positive control plate, representing no significant reduction in the population of viable microorganisms (0 to 1 Log10 reduction).)

SMILES: CC(=O)OCCOC(C)=O [EGDA, ethylene glycol diethyl ester]
- Evaporated Log 10 Reduction [1, 6]: ---0--- (denotes a plate where the numbers of colonies represented more than 50% of the number of colonies counted in the corresponding positive control plate, representing no significant reduction in the population of viable microorganisms (0 to 1 Log10 reduction).)
- Non-evaporated Log 10 Reduction [1, 6]: ---0--- (denotes a plate where the numbers of colonies represented more than 50% of the number of colonies counted in the corresponding positive control plate, representing no significant reduction in the population of viable microorganisms (0 to 1 Log10 reduction).)
- Evaporated Log 10 Reduction [1, 7]: XX (denotes a plate where the number of colonies represented less than 10% of the number of colonies counted in the corresponding positive control plate, representing a significant reduction of the number of microorganisms (>3 Log10 reduction).)
- Non-evaporated Log 10 Reduction [1, 7]: ---0--- (denotes a plate where the numbers of colonies represented more than 50% of the number of colonies counted in the corresponding positive control plate, representing no significant reduction in the population of viable microorganisms (0 to 1 Log10 reduction).)
- Evaporated Log 10 Reduction [1, 8]: XX (denotes a plate where the number of colonies represented less than 10% of the number of colonies counted in the corresponding positive control plate, representing a significant reduction of the number of microorganisms (>3 Log10 reduction).)
- Non-evaporated Log 10 Reduction [1, 8]: ---0--- (denotes a plate where the numbers of colonies represented more than 50% of the number of colonies counted in the corresponding positive control plate, representing no significant reduction in the population of viable microorganisms (0 to 1 Log10 reduction).)
- evaporative potentiation of antimicrobial efficacy [1]: can be potentiated by evaporation

SMILES: CCCCOCCO [EGMBE, ethylene glycol monobutyl ether]
- evaporative potentiation of antimicrobial efficacy [1]: can be potentiated by evaporation
- Relative Evaporation Rates [2]: 0.06
- Relative Evaporation Rates (estimated) ([3]; 10% (v/v)): 0.33
- Relative Evaporation Rates (estimated) ([3]; 20% (v/v)): 0.30

SMILES: COCCOC(C)=O [EGMEA, ethylene glycol monomethyl ether acetate]
- Evaporated Log 10 Reduction [1, 6]: ---0--- (denotes a plate where the numbers of colonies represented more than 50% of the number of colonies counted in the corresponding positive control plate, representing no significant reduction in the population of viable microorganisms (0 to 1 Log10 reduction).)
- Non-evaporated Log 10 Reduction [1, 6]: ---0--- (denotes a plate where the numbers of colonies represented more than 50% of the number of colonies counted in the corresponding positive control plate, representing no significant reduction in the population of viable microorganisms (0 to 1 Log10 reduction).)
- Evaporated Log 10 Reduction [1, 7]: ---0--- (denotes a plate where the numbers of colonies represented more than 50% of the number of colonies counted in the corresponding positive control plate, representing no significant reduction in the population of viable microorganisms (0 to 1 Log10 reduction).)
- Non-evaporated Log 10 Reduction [1, 7]: ---0--- (denotes a plate where the numbers of colonies represented more than 50% of the number of colonies counted in the corresponding positive control plate, representing no significant reduction in the population of viable microorganisms (0 to 1 Log10 reduction).)
- Evaporated Log 10 Reduction [1, 8]: XX (denotes a plate where the number of colonies represented less than 10% of the number of colonies counted in the corresponding positive control plate, representing a significant reduction of the number of microorganisms (>3 Log10 reduction).)
- Non-evaporated Log 10 Reduction [1, 8]: ---0--- (denotes a plate where the numbers of colonies represented more than 50% of the number of colonies counted in the corresponding positive control plate, representing no significant reduction in the population of viable microorganisms (0 to 1 Log10 reduction).)
- evaporative potentiation of antimicrobial efficacy [1]: can be potentiated by evaporation

SMILES: CCO [Ethanol, reference compound]
- FP [4]: 22 °C
- Azeotrope with Water % v/v [5]: 94% v/v
- Azeotrope with Water % w/w [5]: 95% w/w

SMILES: CCC(C)=NO [MEKO, 2-butanone oxime]
- Evaporated Log 10 Reduction [1, 7]: XXX (denotes a plate in which zero colonies were present, representing complete reduction of the number of microorganisms (>5 Log10 reduction).)
- Non-evaporated Log 10 Reduction [1, 7]: XXX (denotes a plate in which zero colonies were present, representing complete reduction of the number of microorganisms (>5 Log10 reduction).)
- Evaporated Log 10 Reduction [1, 8]: XXX (denotes a plate in which zero colonies were present, representing complete reduction of the number of microorganisms (>5 Log10 reduction).)
- Non-evaporated Log 10 Reduction [1, 8]: XXX (denotes a plate in which zero colonies were present, representing complete reduction of the number of microorganisms (>5 Log10 reduction).)
- evaporative potentiation of antimicrobial efficacy [1]: can be potentiated by evaporation

SMILES: CO [Methanol]
- FP [4]: 11 °C

SMILES: O [water]
- Relative Evaporation Rates [2]: 0.36
